Results taken from US20240024403A1, “Compositions and Methods for Managing Weight” (Unigen, Inc., priority 2012, published 2024).

Test system: CCK peptide
Experiment: CCK peptide levels in DIO mice (CCK ELISA)
Type: in vivo
Details: mice on high fat diet; after 7 weeks of administering; % ± SD
Method: Therefore, the effect on CCK peptide levels in mice from treatment with Composition 2 (Magnolia:Morus:Mutamba), produced according to the Example 42, or Composition 3 (Morus:Rosemary:Yerba Mate), produced according to the Example 39, was examined to determine the extent to which weight gain and/or appetite were affected through this peptide hormone pathway. Briefly, CCK peptide levels were measured after 7 weeks of administering Compositions […] and 3 to mice on a high fat diet as described in Example 48. Negative controls include mice on a normal diet (NC) and mice on a high fat diet (HFD), each group administered vehicle only. The positive controls were orlistat and sibutrimine. CCK levels were detected using a CCK ELISA assay kit according to the manufacturer's instructions (Abnova, Taipei City, Tiawan). Measurements were performed using microplate reader Victor™ X3 (PerkinElmer Inc., Waltham, MA) and computer software on the PerkinElmer 2030 workstation.

CCCCCCCCCCC[C@@H](C[C@@H]1OC(=O)[C@H]1CCCCCC)OC(=O)[C@H](CC(C)C)NC=O [ORI, orlistat]
% CCK binding: 72.5 ± 3.4%

CC(C)CC(N(C)C)C1(c2ccc(Cl)cc2)CCC1 (centres unmarked) [SIB, sibutramine]
% CCK binding: 12.3 ± 1.6%
